Reference: PubChem BioAssay (NCI)
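Growth conditions: 96-well plates. Treatment: test compound, 48 hours, 5 concentrations. Analysis: linear interpolation between bracketing concentrations; unreached endpoints set to highest concentration. GI50 is the concentration that inhibits growth by half. Definition used: TGI = concentration required for complete inhibition of growth.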

Tests used:
Test in all cases: NCI tumour cell line growth inhibition, 48 h
K-562 leukemia = test system: K-562 leukemia
KM12 colon = test system: KM12 colon
HCC-2998 colon = test system: HCC-2998 colon
SF-268 CNS = test system: SF-268 CNS
NCI/ADR-RES ovarian = test system: NCI/ADR-RES ovarian
HOP-92 NSCLC = test system: HOP-92 NSCLC
UO-31 renal = test system: UO-31 renal
NCI-H23 lung = test system: NCI-H23 lung
SF-539 CNS = test system: SF-539 CNS
ACHN renal = test system: ACHN renal

Compound | TGI (K-562 leukemia) [µM] | TGI (KM12 colon) [µM] | TGI (HCC-2998 colon) [µM] | TGI (SF-268 CNS) [µM] | TGI (NCI/ADR-RES ovarian) [µM] | TGI (HOP-92 NSCLC) [µM] | TGI (UO-31 renal) [µM] | TGI (NCI-H23 lung) [µM] | TGI (SF-539 CNS) [µM] | TGI (ACHN renal) [µM] | GI50 (K-562 leukemia) [µM] | GI50 (KM12 colon) [µM] | GI50 (HCC-2998 colon) [µM] | GI50 (SF-268 CNS) [µM] | GI50 (NCI/ADR-RES ovarian) [µM] | GI50 (HOP-92 NSCLC) [µM] | GI50 (UO-31 renal) [µM] | GI50 (NCI-H23 lung) [µM] | GI50 (SF-539 CNS) [µM] | GI50 (ACHN renal) [µM]
CC(C)NC(=O)OCc1c(COC(=O)NC(C)C)c(-c2ccc[n+](COC(=O)C3CC3)c2)n2c1CCC2 | > 100 | > 100 | > 100 | > 100 | > 100 | > 100 | > 100 | > 100 | > 100 | 82.7 |  |  |  |  |  |  |  |  |  | 
O=C1/C(=C/c2ccccc2)CN(CCC(=O)N2C/C(=C\c3ccccc3)C(=O)/C(=C/c3ccccc3)C2)C/C1=C\c1ccccc1 | > 100 | 7.48 | 8 | > 100 | > 76 | 29.7 | 21.7 | 33.5 | 50.6 | 30.3 | 0.494 | 0.911 | 1.71 | 12.2 | 12.1 | 10.4 | 7.51 | 11.5 | 13.9 | 8.92
CN(C)c1ccc2cc(-c3cc4c(oc3=O)-c3ccccc3OC4O)c(=O)oc2c1 (stereo not given) | > 25 | 16.2 | 20.2 | 18.7 | 17.1 | 17.7 | 12.7 | 13.4 | > 25 | 12.5 | 5.2 | 6.05 | 6.99 | 6.26 | 3.6 | 7.49 | 5.09 | 1.41 | 6.83 | 4.29
CC1OC(O[C@H]2/C=C/C=C/C=C/C=C/C=C/C=C/C=C/[C@H](C)[C@@H](O)[C@@H](C)[C@H](C)OC(=O)C[C@H](O)C[C@H](O)CC[C@@H](O)[C@H](O)C[C@H](O)C[C@]3(O)C[C@H](O)[C@@H](C(=O)O)[C@H](C2)O3)C(O)C(N)C1O (stereo not given in full) | > 100 | 42.6 | 61.2 | 60.7 | 56.5 | 52.9 | 4.27 | 34.5 | 47.3 | 20.5 |  |  |  | 25.6 | 24.9 |  |  | 14.3 | 19.3 | 6.47
O=c1ccccc(-c2ccc(-c3ccco3)cc2)c1O | > 100 | 17.5 | 33.2 | > 100 | 4.65 | 39.8 | 8.42 | 15 | 6.38 | 12 | 0.603 | 0.743 | 0.691 | 0.761 | 0.388 | 2.05 | 0.598 | 1.22 | 0.703 | 0.437
COc1cc2c(=O)n(CCCn3ccnc3)c3c4cc5c(cc4ccc3c2cc1OC)OCO5 | > 100 | > 100 | > 100 | 14.9 | > 100 | 28.9 | > 100 | > 100 | 1.8 | 1.36 | 0.669 | 1.37 | 13.4 | 0.448 | 1.08 | 0.831 | 0.262 | 0.599 | 0.489 | 0.278
O=C(O[C@H]1CN[C@H](C#Cc2cc3ncnc(Nc4ccc(OCc5cccc(F)c5)c(Cl)c4)c3s2)C1)N1CCOCC1 | > 25 | 11.2 | 12.6 | > 25 | > 25 | 9.96 | > 15.8 | > 25 | 12 | > 25 | 11.1 | 5.07 | 5.01 | 5.81 | 6.3 | 1.45 | 4.41 | 9.7 | 5.09 | 4.27
CCn1cc(C(=O)N/N=C/c2cccc(F)c2)c(=O)c2cc(F)c(N3CCNC(C)C3)c(F)c21 (stereo not given) | 2.4 | 3.39 | 3.53 | 3.52 | 3.41 | 2.42 | 2.79 | 3.45 | 2.96 | 2.99 | 1.04 | 1.83 | 1.86 | 1.8 | 1.81 | 1.12 | 1.46 | 1.83 | 1.59 | 1.63
N/C(=N\c1nc2ccccc2s1)NC(=O)Nc1ccccc1Cl | > 43.5 | 12 | 10.9 | > 44.2 | 8.83 | 56.4 | 21.2 | 18.2 | 0.834 | 7.17 | 0.0366 | 0.127 | 0.348 | 0.832 | 0.0643 | 0.356 | 0.197 | 0.305 | 0.0853 | 0.227
CN(C1=NS(=O)(=O)N=C(N(C)c2ccccc2)O1)c1ccccc1 | 50.4 | 34.4 | 36.7 | 57 | 70.8 | 54.6 | 37.6 | 28.3 | 39.3 | 31.7 |  |  |  |  |  |  |  |  |  | 
COc1cc(C)[nH]c(=O)c1CN1CCc2c(Cl)cc([C@H](OC)C3COC3)c(Cl)c2C1=O | > 100 | > 100 | > 100 | > 100 | > 100 | > 100 | > 100 | > 100 | > 100 | > 100 | > 100 | > 100 | > 100 | > 100 | > 100 | > 100 | > 100 | > 100 | > 100 | > 100
Cc1cccc2c1O/C(=C\c1ncc([N+](=O)[O-])n1C)C2=O | 3.18 | 0.877 | 3.59 | 0.942 | 0.783 | 1.64 | 0.708 | 0.742 | 3.87 | 0.341 | 0.304 | 0.262 | 0.881 | 0.215 | 0.2 | 0.279 | 0.19 | 0.213 | 1.15 | 0.0595
NC1=NC(c2ccccc2)CC(c2cc(Cl)cc(Br)c2O)=N1 (stereo not given) | 17.4 | 26.1 | 26.4 | 26.9 | 29.9 | 38.2 | 32.3 | 26 | 25.4 | 31.5 |  |  |  |  |  |  |  |  |  | 
N#C/C(=C/C=C/c1ccccc1)S(=O)c1ccccc1 (stereo not given) | 90.8 | 2.17 | 1.18 | 1.94 | 13.7 | 1.03 | 3.08 | 2.31 | 1.07 | 0.462 | 0.32 | 0.594 | 0.342 | 0.392 | 0.369 | 0.319 | 0.4 | 0.461 | 0.267 | 0.2
O=S(=O)(NCCCNc1cc(-c2cn(-c3ccccc3)nc2-c2cccc(O)c2)ccn1)c1cccc2ccccc12 | 4.48 | 7.57 | 3.45 | 40.8 | > 100 | 7.28 | 9.32 | > 100 | 20.2 | > 100 | 0.614 | 2.49 | 1.75 | 3.02 | 3.72 | 1.41 | 2.1 | 2.89 | 2.43 | 3.7
Oc1cccc(Cn2c(-c3cccc(O)c3O)nc3ccccc32)c1O | > 100 | 30.2 | 30 | 28.7 | 8.69 | > 100 | > 100 | 14.1 | 38.4 | 11.8 | 5.56 | 8.62 | 11 | 4.74 | 2.34 | 36.8 | 12.8 | 3.02 | 9.49 | 2.57
COc1c(B(O)O)cccc1-c1nc2c(F)cc3[nH]ncc3c2c2c1CCCC2 | > 100 | 11.7 | 8.91 | 18.8 | 22.1 | 56.8 | 19.4 | 10.8 | 4.99 | 42.8 | 2.14 | 1.41 | 2.22 | 2.1 | 2.44 | 0.0184 | 0.405 | 1.72 | 0.343 | 0.845
